The values that follow come from publication PMC10119282, “Molecular characterization of AIFM2/FSP1 inhibition by iFSP1-like molecules” (Cell Death & Disease, 2023).

A word on the Ki: it is a measure of affinity in units of concentration, obtained from inhibition or displacement.

Each structure is given as a SMILES string.

This test concerns the target T1, hFSP1 WT (Homo sapiens, UniProt Q9BRQ8).
T1 construct: HisSUMO (cleaved yes); made in house; host or cells: E. coli BL21
T1 sequence (Q9BRQ8 1-373): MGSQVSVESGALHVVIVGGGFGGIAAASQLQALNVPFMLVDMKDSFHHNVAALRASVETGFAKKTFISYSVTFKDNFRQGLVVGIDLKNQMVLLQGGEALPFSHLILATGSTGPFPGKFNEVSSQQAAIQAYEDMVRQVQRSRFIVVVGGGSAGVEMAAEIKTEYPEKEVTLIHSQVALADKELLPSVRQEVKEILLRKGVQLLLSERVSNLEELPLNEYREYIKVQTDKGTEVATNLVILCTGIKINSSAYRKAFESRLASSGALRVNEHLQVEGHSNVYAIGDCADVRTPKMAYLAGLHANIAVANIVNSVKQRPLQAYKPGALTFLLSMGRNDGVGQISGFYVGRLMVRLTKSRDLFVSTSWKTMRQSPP
Kind of test: Competition MST against pre-formed complex of hFSP1 WT and FSP1-Tracer. It counts as binding. The method, then: FSP1 (human isoform 1, UniProt Q9BRQ8-1) WT (hFSP1 WT) and F360L (hFSP1 F360L) were expressed in E.coli BL21 as HisSUMO fusion protein. Cells were grown in lysogeny broth medium at 18 °C and induced with 0.5 mM isopropyl-β-thiogalactoside at a cell density A600 of 0.6. Cells were collected after overnight expression by centrifugation, resuspended in lysis buffer ([…], 50 mM Tris-HCl pH 8, 1 mM TCEP, 20 mM imidazole, protease inhibitor, DNase) and lysed by sonication. Cell debris was removed by centrifugation (30,000 × g) at 4 °C for 30 min, after which an IMAC purification was performed. Briefly, a HisTrap crude FF (5 mL) column was equilibrated to lysis buffer, lysates were loaded via the sample pump and the column was then washed with 50 mL lysis buffer. During the elution with a gradient to 100% IMAC elution buffer (300 mM NaCl, 50 mM Tris-HCl pH 8, 1 mM TCEP, 400 mM imidazole) over 100 mL, 5 mL fractions were collected. The pooled fractions were dialysed overnight in the presence of SenP2 SUMO protease at a ratio of 40:1 FSP1:SenP2. Afterwards, a reverse IMAC purification was performed on a HisTrap crude FF (5 mL) column. IMAC eluates were analysed by SDS PAGE and concentrated to 15 mL (hFSP1 WT) and 5 mL (hFSP1 F360L), respectively. […] Pure fractions were pooled (C12—D11 for hFSP1 WT and C7—D4 for hFSP1 F360L), analysed by SDS-PAGE (Supplementary Fig. 4) and concentrated to 5.8 mL at 285.9 µM (hFSP1 WT) and 1.2 mL at 269.5 µM (FSP1 F360L), flash frozen in liquid N2 and stored at −80 °C.
An MST buffer consisting of 1× phosphate-buffered saline (PBS; 137 mM NaCl, 2.7 mM KCl, 10 mM Na2HPO4, 1.8 mM KH2PO4, pH 7.4) with 2 mM reduced L-Glutathione (GSH, Sigma Aldrich, product number G4251) and 0.05% (v/v) Tween 20 (ITW Reagents, molecular biology grade, product number A4974) was used for all MST measurements. […] KD values were determined by applying a Hill-fit to a plot of Fnorm vs. hFSP1 WT/F360L concentration. […]

Regarding `Cc1ccc(-c2c(C#N)c(N)n3c(nc4ccccc43)c2C#N)cc1` [iFSP1], the affinity (hFSP1 WT 5 µM and FSP1-Tracer 5 nM pre-formed complex), expressed as Ki, was 61.6 nM. For the same molecule, the “higher binding affinity to hFSP1 than NADH” value (iFSP1 Ki versus NADH Ki) came to 7.4 fold.
